Measurements reported in patent US20220273590A1, “COMPOUNDS FOR PREVENTION AND TREATMENT OF POST-OPERATIVE COGNITIVE DYSFUNCTION” (ABREXA PHARMACEUTICALS, INC., priority 2019, published 2022).
Where two headings read alike, the source gives them in different places.

Experiments:
[1] = Body weight and food intake in the POCD study; assay type: in vivo, Wistar rats
Description: A total of 60 male Wistar rats (Wu-Wistar, Envigo, The Netherlands) were studied in 5 cohorts. For that, rats were ordered in 5 groups of different weight classes (220-280 g) to ensure that each group would be around 350 g at the time of surgery. Rats arrived at the facility at least 2 weeks before start of the experiments, and were put on reversed light:dark cycle 12:12 with the lights out at 09:00 am. Rats were housed in groups of 2-3 in standard cages under controlled conditions (temperature of 20+/−2 degrees and humidity of 50% +/−10%). The rats were fed with water and Teklad (Envigo, 2018) chow food ad libitum. After surgery, rats were housed individually. Approval of all experiments was given by the applicable animal and welfare committee of the Netherlands.
One week before surgery, chronic treatment J147 treatment started and continued until the end of the experiment. The day of surgery, rats for acute treatment received their J147 (4-5 hours before surgery) by gavage, while the designated control rats received vehicle gavage. Rats were subjected to abdominal surgery, and allowed to recover. After that rats were housed individually. Non-surgery control were placed in individual cages at the same time. Blood samples were collected from the jugular vein catheter at the time of surgery (plasma levels of J147) and at 1, 6 and 24 hours after surgery (plasma inflammatory markers). The first week post-surgery, rats were weighed daily and food intake was measured. Day 7-12 post-surgery rats were subjected to behavioral testing regarding general exploratory behavior and cognitive performance. On Day 14 rats were sacrificed, blood samples were collected from cardiac puncture, CSF was collected, and brain tissue was collected and processed for immunohistochemistry or molecular analyses.
For chronic oral treatment, J147 was added to the food (Teklad 2018, Envigo) at a concentration of 500 mg/kg. J147 was provided by Abrexa and Envigo prepared the food. […] After surgery food intake was measured daily during the last hour of the light phase. […]

[2] = Brain levels of J147 after oral administration in Basis suspension; assay type: in vivo, Adult Wister Rats; details: oral 20 mg/kg in Basis suspension, PO_B satellite
Procedure: Plasma samples obtained during surgery in J147-treated rats and 3 control rats were measured for circulating levels of J147. Results of pharmacokinetic measures of both plasma and brain levels of J147 in rats following oral administration of J147 in basis suspension at 20 mg/kg and also following intravascular administration at 5 mg/kg are shown in Table 2A-C below. When taking the absence of an appropriate peak as zero, mean concentration is 0 ng/ml in controls, 3.103 ng/ml in acutely treated rats and 0.233 ng/ml in chronically treated rats. J147 levels in food were verified as well (467 mg/kg). […] During the first 10 days after surgery and individual housing, rats on the diet ate on average 20±1 g, which was similar to the 20±1 g in surgery with control food and 23±1 g in non-surgery controls, verifying the anticipated intake of 10 mg J147/rat/day and further supporting no preference or aversion for the diet food.
Tables 2A-2B. Pharmacokinetic Measures of Plasma and Brain Levels of J147 Formulated in Basis Suspension Administered Orally to Adult Wister Rats at 20mg/kg.
• All of the brain samples were added with […] by brain weight (g) to PBS volume (mL) ratio 1:3 for homogenization. • The actual concentration (ng/g) is the detected value (ng/mL) multiplied by 4. • BLOQ: Below limit of quantitation (LLOQ: 2 ng/g) • NA: not available

- concentration at 0.25 h ([2]; Wistar, rat, brain homogenate, po, 20 mg/kg, brain homogenate 1:3, Group 1, Group 2, LLOQ 2 ng/g, read-out: Brain Detected Conc.): 0.736 ng/mL
- concentration at 0.5 h ([2]; Wistar, rat, brain homogenate, po, 20 mg/kg, 0.5 h, brain homogenate 1:3, Group 1, Group 2, LLOQ 2 ng/g, read-out: Brain Detected Conc.): 1.14 ng/mL
- concentration at 1 h ([2]; Wistar, rat, brain homogenate, po, 20 mg/kg, 1 h, brain homogenate 1:3, Group 1, Group 2, LLOQ 2 ng/g, read-out: Brain Detected Conc.): 7.01 ng/mL
- concentration at 8 h ([2]; Wistar, rat, brain homogenate, po, 20 mg/kg, 8 h, brain homogenate 1:3, Group 1, Group 2, LLOQ 2 ng/g, read-out: Brain Detected Conc.): 0.831 ng/mL
- concentration at 0.25 h ([2]; Wistar, rat, brain, po, 20 mg/kg, detected value multiplied by 4, Group 1, Group 2, read-out: Brain Actual Conc.): 2.94 ng/g
- concentration at 0.5 h ([2]; Wistar, rat, brain, po, 20 mg/kg, 0.5 h, detected value multiplied by 4, Group 1, Group 2, read-out: Brain Actual Conc.): 4.56 ng/g
- concentration at 0.5 h ([2]; Wistar, rat, brain, po, 20 mg/kg, 0.5 h, mean of Group 1 and 2, read-out: Brain Actual Conc. Mean): 3.94 ng/g
- concentration at 1 h ([2]; Wistar, rat, brain, po, 20 mg/kg, 1 h, detected value multiplied by 4, Group 1, Group 2, read-out: Brain Actual Conc.): 28 ng/g
- concentration at 1 h ([2]; Wistar, rat, brain, po, 20 mg/kg, 1 h, mean of Group 1 and 2, read-out: Brain Actual Conc. Mean): 23.7 ng/g
- concentration at 2 h ([2]; Wistar, rat, brain, po, 20 mg/kg, 2 h, mean of Group 1 and 2, read-out: Brain Actual Conc. Mean): 28 ng/g
- concentration at 4 h ([2]; Wistar, rat, brain, po, 20 mg/kg, 4 h, mean of Group 1 and 2, read-out: Brain Actual Conc. Mean): 20.6 ng/g
- concentration at 8 h ([2]; Wistar, rat, brain, po, 20 mg/kg, 8 h, detected value multiplied by 4, Group 1, Group 2, read-out: Brain Actual Conc.): 3.32 ng/g
- concentration at 8 h ([2]; Wistar, rat, brain, po, 20 mg/kg, 8 h, mean of Group 1 and 2, read-out: Brain Actual Conc. Mean): 3.26 ng/g
- Brain Detected Conc. ([2]; 0.5 h, brain homogenate 1:3, Group 1, Group 2, LLOQ 2 ng/g, 20 mg/kg): 0.830 ng/mL
- Brain Actual Conc. ([2]; 0.5 h, detected value multiplied by 4, Group 1, Group 2, 20 mg/kg): 3.32 ng/g
- Brain Detected Conc. ([2]; 1 h, brain homogenate 1:3, Group 1, Group 2, LLOQ 2 ng/g, 20 mg/kg): 4.83 ng/mL
- Brain Actual Conc. ([2]; 1 h, detected value multiplied by 4, Group 1, Group 2, 20 mg/kg): 19.3 ng/g
- Brain Detected Conc. ([2]; 8 h, brain homogenate 1:3, Group 1, Group 2, LLOQ 2 ng/g, 20 mg/kg): 0.799 ng/mL
- Brain Actual Conc. ([2]; 8 h, detected value multiplied by 4, Group 1, Group 2, 20 mg/kg): 3.20 ng/g
- Brain Detected Conc. ([2]; 12 h, brain homogenate 1:3, Group 1, Group 2, LLOQ 2 ng/g): BLOQ
- Brain Detected Conc. ([2]; 16 h, brain homogenate 1:3, Group 1, Group 2, LLOQ 2 ng/g): BLOQ
- Brain Detected Conc. ([2]; 20 h, brain homogenate 1:3, Group 1, Group 2, LLOQ 2 ng/g): BLOQ
- Brain Detected Conc. ([2]; 24 h, brain homogenate 1:3, Group 1, Group 2, LLOQ 2 ng/g): BLOQ
SMILES: COc1cccc(/C=N/N(C(=O)C(F)(F)F)c2ccc(C)cc2C)c1 [J147]
- body weight gained during first week on the J147 diet ([1]; chronic J147 500 mg/kg food, week before surgery, control fed rats 33.5±3.0 g): 32.0 ± 1.8 g
- average food eaten during the first 10 days after surgery ([1]; chronic J147 diet, individual housing, surgery control food 20±1 g): 20 ± 1 g
- body weight loss after surgery ([1]; chronically treated rats (J147 500 mg/kg food)): lost significantly less body weight after surgery
